{
  "source": "ChEMBL document CHEMBL5365408",
  "about": "“Small molecule inhibitors of PCSK9. SAR investigations of head and amine groups” (Bioorg Med Chem Lett, 2023)",
  "key": {"[1]": {"biological_target": "T1, Proprotein convertase subtilisin/kexin type 9 (Homo sapiens, UniProt Q8NBP7)", "T1 sequence (Q8NBP7 31-152 limits assumed)": "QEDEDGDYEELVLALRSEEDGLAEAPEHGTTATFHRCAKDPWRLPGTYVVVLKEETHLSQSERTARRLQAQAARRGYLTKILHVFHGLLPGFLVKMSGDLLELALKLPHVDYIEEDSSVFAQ", "T1 sequence (Q8NBP7 153-692 limits assumed)": "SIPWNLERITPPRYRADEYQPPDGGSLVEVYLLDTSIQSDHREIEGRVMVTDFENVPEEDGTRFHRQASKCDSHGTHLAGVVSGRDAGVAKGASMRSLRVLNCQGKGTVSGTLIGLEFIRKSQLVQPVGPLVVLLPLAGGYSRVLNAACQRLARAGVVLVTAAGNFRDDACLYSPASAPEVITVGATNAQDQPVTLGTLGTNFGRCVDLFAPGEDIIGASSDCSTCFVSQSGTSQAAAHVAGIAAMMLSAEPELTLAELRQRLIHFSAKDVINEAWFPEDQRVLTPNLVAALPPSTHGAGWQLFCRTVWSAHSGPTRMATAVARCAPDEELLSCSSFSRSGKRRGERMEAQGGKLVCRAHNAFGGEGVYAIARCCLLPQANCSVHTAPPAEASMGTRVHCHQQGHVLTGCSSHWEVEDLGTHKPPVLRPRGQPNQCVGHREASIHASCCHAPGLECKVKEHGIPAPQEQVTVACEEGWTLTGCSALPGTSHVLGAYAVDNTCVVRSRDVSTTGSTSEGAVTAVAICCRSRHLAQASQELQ", "assay": "Inhibition of full length human PCSK9 expressed in human Huh-7 cells by ELISA analysis", "format": "cell-based"}, "[2]": {"assay": "Selectivity index, ratio of IC50 for cytotoxicity against rat Bone marrow cell assessed as inhibition of cell growth by celltiter-glo assay to IC50 for inhibition of full length human PCSK9 expressed in human Huh-7 cells by ELISA analysis"}, "[3]": {"assay": "Cytotoxicity against rat Bone marrow cell assessed as inhibition of cell growth with puromycin as high potent effect standard by celltiter-glo assay", "format": "toxicity, cell-based", "settings": "rat bone marrow cells"}, "[4]": {"assay": "Lipophilicity, log D of the compound by shake flask method", "format": "physicochemical", "settings": "octanol/water"}, "[5]": {"assay": "Apparent permeability across apical to basolateral side in MDCK-MDR1 cells", "format": "ADME, cell-based, Canis lupus familiaris", "settings": "dog, read-out: permeability"}, "[6]": {"assay": "Apparent permeability of compound in MDCK-II cells", "format": "ADME, cell-based, Canis lupus familiaris", "settings": "dog, read-out: permeability"}, "CYP2C9": {"biological_target": "CYP2C9 (Homo sapiens, UniProt P11712)", "sequence (P11712 whole entry)": "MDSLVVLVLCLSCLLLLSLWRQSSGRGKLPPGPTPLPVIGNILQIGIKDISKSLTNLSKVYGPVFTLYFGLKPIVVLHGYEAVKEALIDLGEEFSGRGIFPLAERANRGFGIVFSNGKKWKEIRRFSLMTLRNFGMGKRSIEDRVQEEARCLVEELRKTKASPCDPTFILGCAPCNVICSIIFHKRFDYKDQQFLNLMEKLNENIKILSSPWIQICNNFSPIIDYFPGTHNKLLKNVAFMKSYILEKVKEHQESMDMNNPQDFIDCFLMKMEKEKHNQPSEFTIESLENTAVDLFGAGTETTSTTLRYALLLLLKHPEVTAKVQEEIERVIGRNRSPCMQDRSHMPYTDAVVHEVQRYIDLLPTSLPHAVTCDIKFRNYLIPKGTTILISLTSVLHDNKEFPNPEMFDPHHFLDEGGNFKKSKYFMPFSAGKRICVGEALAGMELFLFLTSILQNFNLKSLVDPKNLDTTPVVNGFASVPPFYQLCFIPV", "assay": "Inhibition of CYP2C9 (unknown origin) at 3 uM relative to control", "format": "ADME"}, "[7]": {"assay": "Apparent permeability across basolateral to apical side in MDCK-MDR1 cells", "format": "ADME, cell-based, Canis lupus familiaris", "settings": "dog, read-out: permeability"}, "[8]": {"assay": "Unbound fraction in mouse plasma by equilibrium dialysis analysis", "format": "ADME, cell-free"}, "[9]": {"assay": "Cytotoxicity against human CD34-positive cell assessed as reduction in cell growth by celltiter-glo assay", "format": "toxicity, cell-based", "settings": "human CD34-positive cells"}, "[10]": {"biological_target": "Voltage-gated inwardly rectifying potassium channel KCNH2 (Homo sapiens, UniProt Q12809)", "sequence (Q12809 whole entry)": "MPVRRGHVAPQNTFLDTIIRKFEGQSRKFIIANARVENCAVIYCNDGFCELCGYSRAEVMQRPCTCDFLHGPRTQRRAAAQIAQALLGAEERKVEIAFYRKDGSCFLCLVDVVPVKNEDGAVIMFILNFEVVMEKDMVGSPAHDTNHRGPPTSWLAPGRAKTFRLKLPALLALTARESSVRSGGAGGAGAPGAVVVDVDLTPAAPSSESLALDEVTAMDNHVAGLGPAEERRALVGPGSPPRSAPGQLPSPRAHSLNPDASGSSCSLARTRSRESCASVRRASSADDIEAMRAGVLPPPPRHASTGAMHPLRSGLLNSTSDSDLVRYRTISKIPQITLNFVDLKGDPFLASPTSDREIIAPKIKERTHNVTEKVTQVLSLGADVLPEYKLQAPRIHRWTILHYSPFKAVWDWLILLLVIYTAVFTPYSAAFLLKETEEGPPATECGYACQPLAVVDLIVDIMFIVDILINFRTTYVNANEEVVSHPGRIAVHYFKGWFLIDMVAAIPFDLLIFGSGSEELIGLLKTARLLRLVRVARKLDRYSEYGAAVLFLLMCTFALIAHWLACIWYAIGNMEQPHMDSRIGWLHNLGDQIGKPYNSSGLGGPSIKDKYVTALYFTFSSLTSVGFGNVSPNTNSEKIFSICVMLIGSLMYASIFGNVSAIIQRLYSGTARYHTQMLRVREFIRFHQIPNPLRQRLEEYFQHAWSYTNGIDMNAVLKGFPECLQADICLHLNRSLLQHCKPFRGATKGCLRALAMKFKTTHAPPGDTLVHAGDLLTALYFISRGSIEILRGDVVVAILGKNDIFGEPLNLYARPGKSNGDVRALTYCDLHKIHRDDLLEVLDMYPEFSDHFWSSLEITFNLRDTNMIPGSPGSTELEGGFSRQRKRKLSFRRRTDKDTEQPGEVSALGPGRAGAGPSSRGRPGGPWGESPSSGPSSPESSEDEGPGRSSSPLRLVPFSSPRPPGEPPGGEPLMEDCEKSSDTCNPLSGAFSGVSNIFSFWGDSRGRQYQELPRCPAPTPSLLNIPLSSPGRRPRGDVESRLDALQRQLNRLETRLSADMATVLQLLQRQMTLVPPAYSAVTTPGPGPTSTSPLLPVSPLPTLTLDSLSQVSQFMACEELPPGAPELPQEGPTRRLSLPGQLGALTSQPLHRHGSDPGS", "assay": "Inhibition of hERG by patch clamp assay", "format": "toxicity"}, "CYP3A4": {"biological_target": "CYP3A4 (Homo sapiens, UniProt P08684)", "sequence (P08684 whole entry)": "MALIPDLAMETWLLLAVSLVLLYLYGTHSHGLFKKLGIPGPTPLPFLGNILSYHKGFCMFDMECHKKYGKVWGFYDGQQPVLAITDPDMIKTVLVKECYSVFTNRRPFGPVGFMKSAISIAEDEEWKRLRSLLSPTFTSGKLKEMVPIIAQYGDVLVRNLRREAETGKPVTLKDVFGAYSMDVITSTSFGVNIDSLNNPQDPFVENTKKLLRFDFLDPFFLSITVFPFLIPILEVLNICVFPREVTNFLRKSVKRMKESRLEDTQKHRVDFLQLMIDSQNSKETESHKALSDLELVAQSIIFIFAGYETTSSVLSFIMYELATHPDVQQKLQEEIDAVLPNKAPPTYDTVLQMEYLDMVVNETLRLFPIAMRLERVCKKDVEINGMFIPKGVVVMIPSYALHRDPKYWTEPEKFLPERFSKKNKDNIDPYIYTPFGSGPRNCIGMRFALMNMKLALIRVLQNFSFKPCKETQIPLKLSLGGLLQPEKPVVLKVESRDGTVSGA", "assay": "Inhibition of CYP3A4 (unknown origin) at 3 uM relative to control", "format": "ADME"}, "CYP2D6": {"biological_target": "CYP2D6 (Homo sapiens, UniProt P10635)", "sequence (P10635 whole entry)": "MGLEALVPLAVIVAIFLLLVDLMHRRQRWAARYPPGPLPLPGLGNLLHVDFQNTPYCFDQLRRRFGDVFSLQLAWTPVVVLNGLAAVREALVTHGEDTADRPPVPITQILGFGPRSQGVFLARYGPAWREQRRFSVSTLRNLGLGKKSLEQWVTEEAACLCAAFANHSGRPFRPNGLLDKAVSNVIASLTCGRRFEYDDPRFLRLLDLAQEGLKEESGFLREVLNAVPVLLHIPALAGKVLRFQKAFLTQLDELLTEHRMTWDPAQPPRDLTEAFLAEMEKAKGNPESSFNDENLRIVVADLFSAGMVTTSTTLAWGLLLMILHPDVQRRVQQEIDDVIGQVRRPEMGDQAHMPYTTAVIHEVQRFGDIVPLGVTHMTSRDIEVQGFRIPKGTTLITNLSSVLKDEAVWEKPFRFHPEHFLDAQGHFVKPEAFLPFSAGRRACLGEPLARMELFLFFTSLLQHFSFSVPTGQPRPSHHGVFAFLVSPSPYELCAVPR", "assay": "Inhibition of CYP2D6 (unknown origin) at 3 uM relative to control", "format": "ADME"}, "[11]": {"assay": "(§1) Cytotoxicity against rat Bone marrow cell assessed as inhibition of cell growth with (R)-4-(3H-[1,2,3]triazolo[4,5-b]pyridin-3-yl)-N-(3-chloropyridin-2-yl)-N-(piperidin-3-yl) benzamide as high potent effect standard by celltiter-glo assay", "format": "toxicity, cell-based", "settings": "rat, rat bone marrow cells"}, "[12]": {"assay": "Unbound fraction in human plasma by equilibrium dialysis analysis", "format": "ADME, cell-free"}, "CYP1A2": {"biological_target": "T2, CYP1A2 (Homo sapiens, UniProt P05177)", "T2 sequence (P05177 whole entry)": "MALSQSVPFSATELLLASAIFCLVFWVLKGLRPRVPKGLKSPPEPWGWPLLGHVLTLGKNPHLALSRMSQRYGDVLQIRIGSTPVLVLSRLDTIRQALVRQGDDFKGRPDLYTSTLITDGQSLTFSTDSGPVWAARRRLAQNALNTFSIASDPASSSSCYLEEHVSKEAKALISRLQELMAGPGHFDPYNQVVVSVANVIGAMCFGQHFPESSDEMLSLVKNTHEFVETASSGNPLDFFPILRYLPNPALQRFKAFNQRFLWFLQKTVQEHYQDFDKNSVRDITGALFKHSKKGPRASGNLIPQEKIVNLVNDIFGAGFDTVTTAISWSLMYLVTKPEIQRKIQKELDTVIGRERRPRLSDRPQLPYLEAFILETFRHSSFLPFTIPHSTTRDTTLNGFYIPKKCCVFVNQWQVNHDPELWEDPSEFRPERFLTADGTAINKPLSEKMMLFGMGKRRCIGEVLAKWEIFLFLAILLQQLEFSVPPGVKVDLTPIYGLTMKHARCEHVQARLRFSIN", "assay": "Inhibition of CYP1A2 (unknown origin) at 3 uM relative to control", "format": "ADME"}, "Bone marrow cell": {"test_system": "Bone marrow cell", "assay": "as §1", "format": "toxicity, cell-based", "settings": "bone marrow cell"}, "[13]": {"biological_target": "T1, Proprotein convertase subtilisin/kexin type 9", "assay": "Inhibition of full length human PCSK9 expressed in human Huh-7 cells at 20 uM by ELISA analysis relative to control", "format": "cell-based"}},
  "data": [
    {"smiles": "O=C(c1ccc(-n2nnc3cccnc32)cc1)N(c1nccc2c1CCCC2)[C@@H]1CCCNC1", "values": [
      {"measurement": "IC50", "setting": "[1]", "value": 2.28, "unit": "µM"},
      {"measurement": "Ratio IC50", "setting": "[2]", "value": 0.18},
      {"measurement": "IC50", "setting": "[3]", "value": 410, "unit": "nM"}
    ]},
    {"smiles": "O=C(c1ccc(-c2cnn3cccnc23)cc1)N(c1ncccc1C(F)(F)F)[C@@H]1CCCNC1", "values": [
      {"measurement": "IC50", "setting": "[1]", "value": 2.79, "unit": "µM"},
      {"measurement": "logD", "setting": "[4]", "value": 1.1},
      {"measurement": "Papp A→B", "setting": "[5]", "value": 0.7, "unit": "×10⁻⁶ cm/s"},
      {"measurement": "Papp", "setting": "[6]", "value": 7, "unit": "×10⁻⁶ cm/s"},
      {"measurement": "Ratio IC50", "setting": "[2]", "value": 7.6},
      {"measurement": "inhibition at 3 µM", "setting": "CYP2C9", "value": "< 40", "unit": "%"},
      {"measurement": "Papp B→A", "setting": "[7]", "value": 26.4, "unit": "×10⁻⁶ cm/s"},
      {"measurement": "Fu", "setting": "[8]", "value": 0.13, "unit": "%"},
      {"measurement": "IC50", "setting": "[9]", "value": 35.9, "unit": "µM"},
      {"measurement": "IC50", "setting": "[10]", "value": 57.6, "unit": "µM"},
      {"measurement": "inhibition at 3 µM", "setting": "CYP3A4", "value": "< 40", "unit": "%"},
      {"measurement": "inhibition at 3 µM", "setting": "CYP2D6", "value": "< 40", "unit": "%"},
      {"measurement": "IC50", "setting": "[11]", "value": 21.2, "unit": "µM"},
      {"measurement": "Fu", "setting": "[12]", "value": 0.41, "unit": "%"},
      {"measurement": "IC50", "setting": "[3]", "value": "> 20000", "unit": "nM"},
      {"measurement": "inhibition at 3 µM", "setting": "CYP1A2", "value": "< 40", "unit": "%"}
    ]},
    {"smiles": "O=C(c1ccc(-n2nnc3cccnc32)cc1)N(c1ncccc1Cl)[C@H]1CNC[C@H](CO)C1", "values": [
      {"measurement": "IC50", "setting": "[1]", "value": 4.6, "unit": "µM"},
      {"measurement": "IC50", "setting": "Bone marrow cell", "value": 7.2, "unit": "µM"}
    ]},
    {"smiles": "C[C@@H]1CNC[C@H](N(C(=O)c2ccc(-n3nnc4cccnc43)cc2)c2ncccc2Cl)C1", "note": "(racemic)", "values": [
      {"measurement": "inhibition", "setting": "[13]", "value": 38, "unit": "%"}
    ]},
    {"smiles": "COC(=O)NC[C@H]1CNC[C@H](N(C(=O)c2ccc(-n3nnc4cccnc43)cc2)c2ncccc2Cl)C1", "note": "(racemic)", "values": [
      {"measurement": "IC50", "setting": "[1]", "value": "> 20", "unit": "µM"}
    ]},
    {"smiles": "O=C(c1ccc(-n2nnc3cccnc32)cc1)N(c1ncccc1OC(F)(F)F)[C@@H]1CCCNC1", "values": [
      {"measurement": "IC50", "setting": "[1]", "value": 5.4, "unit": "µM"},
      {"measurement": "IC50", "setting": "[11]", "value": 6.44, "unit": "µM"}
    ]},
    {"smiles": "O=C(c1ccc(-n2nnc3cccnc32)cc1)N(c1ncccc1Cl)[C@H]1CNC[C@H](CO)C1", "note": "(racemic)", "values": [
      {"measurement": "IC50", "setting": "[1]", "value": 8.9, "unit": "µM"},
      {"measurement": "IC50", "setting": "[11]", "value": 9.9, "unit": "µM"}
    ]},
    {"smiles": "C[C@H]1CNC[C@H](N(C(=O)c2ccc(-n3nnc4cccnc43)cc2)c2ncccc2Cl)C1", "note": "(racemic)", "values": [
      {"measurement": "inhibition", "setting": "[13]", "value": 43, "unit": "%"}
    ]},
    {"smiles": "O=C(c1ccc(-n2nnc3cccnc32)cc1)N(c1ncccc1Cl)[C@H]1CNC[C@H](Oc2ccccc2)C1", "note": "(racemic)", "values": [
      {"measurement": "IC50", "setting": "[1]", "value": "> 20", "unit": "µM"}
    ]},
    {"smiles": "CCc1cccnc1N(C(=O)c1ccc(-c2cnn3cccnc23)cc1)[C@@H]1CCCNC1", "values": [
      {"measurement": "IC50", "setting": "[1]", "value": 3.31, "unit": "µM"}
    ]},
    {"smiles": "O=C(c1ccc(-c2cnn3cccnc23)cc1)N(c1ncccc1C1CC1)[C@@H]1CCCNC1", "values": [
      {"measurement": "IC50", "setting": "[1]", "value": 7.74, "unit": "µM"}
    ]},
    {"smiles": "C[C@H]1CNC[C@H](N(C(=O)c2ccc(-n3nnc4cccnc43)cc2)c2ncccc2Cl)C1", "values": [
      {"measurement": "IC50", "setting": "[1]", "value": 14.1, "unit": "µM"},
      {"measurement": "IC50", "setting": "Bone marrow cell", "value": 22, "unit": "µM"}
    ]},
    {"smiles": "Cn1ccc2ccnc(N(C(=O)c3ccc(-n4nnc5cccnc54)cc3)[C@@H]3CCCNC3)c21", "values": [
      {"measurement": "IC50", "setting": "[1]", "value": 0.58, "unit": "µM"},
      {"measurement": "Ratio IC50", "setting": "[2]", "value": 0.07},
      {"measurement": "IC50", "setting": "[3]", "value": 40, "unit": "nM"}
    ]},
    {"smiles": "Cc1cnc2c(c1)nnn2-c1ccc(C(=O)N(c2ncccc2Cl)[C@@H]2CCCNC2)nc1", "values": [
      {"measurement": "IC50", "setting": "[11]", "value": 27.1, "unit": "µM"},
      {"measurement": "IC50", "setting": "[3]", "value": 19900, "unit": "nM"}
    ]},
    {"smiles": "O=C(c1ccc(-c2cnn3cccnc23)cc1)N(c1ncccc1F)[C@@H]1CCCNC1", "values": [
      {"measurement": "IC50", "setting": "[1]", "value": "> 20", "unit": "µM"}
    ]},
    {"smiles": "O=C(c1ccc(-n2nnc3cccnc32)cc1)N(c1ncccc1C(F)(F)F)[C@@H]1CCCNC1", "values": [
      {"measurement": "IC50", "setting": "[1]", "value": 1.66, "unit": "µM"},
      {"measurement": "Ratio IC50", "setting": "[2]", "value": 8.28},
      {"measurement": "IC50", "setting": "[11]", "value": 13.8, "unit": "µM"}
    ]},
    {"smiles": "O=C(c1ccc(-n2nnc3cccnc32)cc1)N(c1ncccc1Cl)[C@H]1CNC[C@H](c2ccccc2)C1", "note": "(racemic)", "values": [
      {"measurement": "IC50", "setting": "[1]", "value": "> 20", "unit": "µM"},
      {"measurement": "IC50", "setting": "[11]", "value": 12.5, "unit": "µM"}
    ]},
    {"smiles": "Cn1ncc2ccnc(N(C(=O)c3ccc(-n4nnc5cccnc54)cc3)[C@@H]3CCCNC3)c21", "values": [
      {"measurement": "IC50", "setting": "[1]", "value": 0.62, "unit": "µM"},
      {"measurement": "Ratio IC50", "setting": "[2]", "value": 0.29},
      {"measurement": "IC50", "setting": "[3]", "value": 180, "unit": "nM"}
    ]}
  ]
}
